Data from US20250051375A1, “ANTI-HIV COMPOUNDS” (Gilead Sciences, Inc., priority 2023, published 2025).
Converted amounts (≈) assume the structure as drawn.

Legend:
HIV-1 IIIB strain = experiment: MT-4 HIV Wild Type Virus Infection Assay (IIIB Virus); format: cell-based; conditions: Human immunodeficiency virus 1, IIIB, MT4, 120 h, MT-4 cells acutely infected with HIV-1 IIIB, 5 day incubation, Cell-titer glo
Procedure, shortened: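 MT-4 cells at 2×10^6 cells/ml in RPMI/10% FBS were acutely infected with HIV-1 IIIB for 1 h at 37° C, diluted 25× and added to serially diluted compounds. After 5 days at 37° C, viability read by CellTiter-Glo luminescence; EC50 from dose-response curves.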

[1] = target: bovine intestinal alkaline phosphatase (Bos taurus (Bovine), UniProt P19111); experiment: BiALP: conversion by bovine intestinal alkaline phosphatase; format: in vitro ADME; conditions: 2 μM substrate, 100 ng/mL iALP, Tris pH 7.8, 37° C., 60 minutes; for [Intermediate A] or [Amprenavir]: parent formed
Procedure, shortened: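 LC-MS (positive mode) quantified analyte/internal-standard peak area ratios, referenced to 2 μM parent product. This followed a 60 min, 37° C reaction of 2 μM substrate in Tris buffer pH 7.8 (1 mM MgCl2, 1 mM ZnCl2) containing 100 ng/mL iALP or buffer alone, run in triplicate.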

PBS Stability Assay = format: physicochemical; conditions: buffer, pH 7.4, 2 μM, phosphate buffered saline pH 7.4; read-out: PBS T½
Procedure, shortened: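 Half-life derives from first-order exponential decline of % compound remaining, quantified by LC-MS analyte/internal-standard peak-area ratio. Compound (2 μM final) sat in pH 7.4 phosphate-buffered saline, with aliquots quenched into acidified acetonitrile containing labetalol from 0 to 120 min.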

Solubility in FaSSIF = conditions: 23 °C, pH 6.5, fassif, thermodynamic from solid
Procedure, shortened: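 Concentration measured by HPLC-UV after solid compound was dosed at 5 mg/mL into pH 6.5 fasted-state simulated intestinal fluid containing taurocholate and lecithin (4:1 molar) and vortexed.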

Sequence of bovine intestinal alkaline phosphatase (P19111 20-506): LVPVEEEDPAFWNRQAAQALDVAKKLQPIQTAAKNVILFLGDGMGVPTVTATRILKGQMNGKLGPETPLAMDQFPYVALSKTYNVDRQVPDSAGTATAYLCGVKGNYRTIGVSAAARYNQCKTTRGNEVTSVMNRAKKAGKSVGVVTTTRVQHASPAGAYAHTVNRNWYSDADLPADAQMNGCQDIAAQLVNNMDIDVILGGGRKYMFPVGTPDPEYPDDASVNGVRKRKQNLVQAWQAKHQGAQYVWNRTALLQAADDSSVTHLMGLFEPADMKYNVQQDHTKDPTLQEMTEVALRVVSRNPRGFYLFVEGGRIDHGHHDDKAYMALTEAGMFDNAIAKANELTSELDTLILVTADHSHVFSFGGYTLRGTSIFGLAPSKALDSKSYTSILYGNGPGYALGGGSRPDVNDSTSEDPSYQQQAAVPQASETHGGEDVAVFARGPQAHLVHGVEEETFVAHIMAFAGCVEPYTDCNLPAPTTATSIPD

SMILES | EC50 (HIV-1 IIIB strain) [nM] | [Compound] [1] [nM] | half-life at 2 μM (PBS Stability Assay) [min] | solubility at 2 h (Solubility in FaSSIF) [µg/mL] | biALP Intermediate A or [Amprenavir] (% of total) [1] | [Intermediate A] or [Amprenavir] [1] [nM]
COC(=O)N[C@H](C(=O)N[C@@H](Cc1ccc(C#Cc2cnc(N3CC4CCC(C3)N4C3COC3)nc2)cc1)[C@H](CN(Cc1c(F)cc(-c2ccn(C(F)F)n2)cc1F)NC(=O)[C@@H](NC(=O)OC)C(C)(C)C(F)(F)F)OC(=O)CC(C)(C)c1c(CC(=O)N2CCN(CC(=O)O)CC2)cc(C)cc1OP(=O)(O)O)C(C)(C)C(F)(F)F [Example 82] | 335 | 1224.3 | 402 | < 1000 |  | 
COC(=O)N[C@H](C(=O)N[C@@H](Cc1ccc(C#Cc2cnc(N3CC4CCC(C3)N4C3COC3)nc2)cc1)[C@H](CN(Cc1c(F)cc(-c2ccn(C(F)F)n2)cc1F)NC(=O)[C@@H](NC(=O)OC)C(C)(C)C(F)(F)F)OC(=O)OCOC(=O)CC(C)(C)c1c(CC(=O)N2CCN(S(N)(=O)=O)CC2)cc(C)cc1OP(=O)(O)O)C(C)(C)C(F)(F)F [Example 85] | 2.4 | 1466.1 | 136 | < 1000 |  | 
COC(=O)N[C@H](C(=O)N[C@@H](Cc1ccc(C#Cc2cnc(N3CC4CCC(C3)N4C3COC3)nc2)cc1)[C@H](CN(Cc1c(F)cc(-c2ccn(C(F)F)n2)cc1F)NC(=O)[C@@H](NC(=O)OC)C(C)(C)C(F)(F)F)OC(=O)OCOC(=O)CC(C)(C)c1c(CC(=O)N2CCN(S(=O)(=O)N(C)C)CC2)cc(C)cc1OP(=O)(O)O)C(C)(C)C(F)(F)F [Example 86] | 4.1 | 1890 | 155 | < 1000 | 5.6 % of total | 112.9
COC(=O)N[C@H](C(=O)N[C@@H](Cc1ccc(C#Cc2cnc(N3CC4CCC(C3)N4C3COC3)nc2)cc1)[C@H](CN(Cc1c(F)cc(-c2ccn(C(F)F)n2)cc1F)NC(=O)[C@@H](NC(=O)OC)C(C)(C)C(F)(F)F)OC(=O)OCOC(=O)CC(C)(C)c1c(CC(=O)N[C@@H](CCC(N)=O)C(=O)O)cc(C)cc1OP(=O)(O)O)C(C)(C)C(F)(F)F [Example 87] | 3.6 | 1161.5 | 325 | 4500 (≈ 2670 µM) |  | 
COC(=O)N[C@H](C(=O)N[C@@H](Cc1ccc(C#Cc2cnc(N3CC4CCC(C3)N4C3COC3)nc2)cc1)[C@H](CN(Cc1c(F)cc(-c2ccn(C(F)F)n2)cc1F)NC(=O)[C@@H](NC(=O)OC)C(C)(C)C(F)(F)F)OC(=O)CC(C)(C)c1c(CC(=O)N[C@@H](CCC(N)=O)C(=O)O)cc(C)cc1OP(=O)(O)O)C(C)(C)C(F)(F)F [Example 88] | 42.8 | 1726.6 | 370 | 4640 (≈ 2880 µM) | 6 % of total | 109.8
COC(=O)N[C@H](C(=O)N[C@@H](Cc1ccc(C#Cc2cnc(N3CC4CCC(C3)N4C3COC3)nc2)cc1)[C@H](CN(Cc1c(F)cc(-c2ccn(C(F)F)n2)cc1F)NC(=O)[C@@H](NC(=O)OC)C(C)(C)C(F)(F)F)OC(=O)CC(C)(C)c1c(CC(=O)N[C@@H](CC(N)=O)C(=O)O)cc(C)cc1OP(=O)(O)O)C(C)(C)C(F)(F)F [Example 89] | 115 | 1704.6 | 318 | 2390 (≈ 1500 µM) |  | 
COC(=O)N[C@H](C(=O)N[C@@H](Cc1ccc(C#Cc2cnc(N3CC4CCC(C3)N4C3COC3)nc2)cc1)[C@H](CN(Cc1c(F)cc(-c2ccn(C(F)F)n2)cc1F)NC(=O)[C@@H](NC(=O)OC)C(C)(C)C(F)(F)F)OC(=O)CC(C)(C)c1c(CC(=O)Nc2ccc(S(=O)(=O)O)cc2)cc(C)cc1OP(=O)(O)O)C(C)(C)C(F)(F)F [Example 90] | 101 | 1746 | 327 | 4240 (≈ 2590 µM) |  | 
COC(=O)N[C@H](C(=O)N[C@@H](Cc1ccc(C#Cc2cnc(N3CC4CCC(C3)N4C3COC3)nc2)cc1)[C@H](CN(Cc1c(F)cc(-c2ccn(C(F)F)n2)cc1F)NC(=O)[C@@H](NC(=O)OC)C(C)(C)C(F)(F)F)OC(=O)CC(C)(C)c1c(CC(=O)NCCCC(=O)O)cc(C)cc1OP(=O)(O)O)C(C)(C)C(F)(F)F [Example 91] | 60 | 2153.3 | 390 | < 1000 |  | 
COC(=O)N[C@H](C(=O)N[C@@H](Cc1ccc(C#Cc2cnc(N3CC4CCC(C3)N4C3COC3)nc2)cc1)[C@H](CN(Cc1c(F)cc(-c2ccn(C(F)F)n2)cc1F)NC(=O)[C@@H](NC(=O)OC)C(C)(C)C(F)(F)F)OC(=O)CC(C)(C)c1c(CC(=O)N[C@H](CCC(=O)O)C(=O)O)cc(C)cc1OP(=O)(O)O)C(C)(C)C(F)(F)F [Example 92] | 37.1 | 1771.4 | 357 | 3660 (≈ 2270 µM) |  | 
COC(=O)N[C@H](C(=O)N[C@@H](Cc1ccc(C#Cc2cnc(N3CC4CCC(C3)N4C3COC3)nc2)cc1)[C@H](CN(Cc1c(F)cc(-c2ccn(C(F)F)n2)cc1F)NC(=O)[C@@H](NC(=O)OC)C(C)(C)C(F)(F)F)OC(=O)CC(C)(C)c1c(CC(=O)N(C)CCCC(=O)O)cc(C)cc1OP(=O)(O)O)C(C)(C)C(F)(F)F [Example 93] | 55.8 | 1917.5 | 166 | < 1000 |  | 
COC(=O)N[C@H](C(=O)N[C@@H](Cc1ccc(C#Cc2cnc(N3CC4CCC(C3)N4C3COC3)nc2)cc1)[C@H](CN(Cc1c(F)cc(-c2ccn(C(F)F)n2)cc1F)NC(=O)[C@@H](NC(=O)OC)C(C)(C)C(F)(F)F)OC(=O)CC(C)(C)c1c(CC(=O)N(C)CCC(=O)O)cc(C)cc1OP(=O)(O)O)C(C)(C)C(F)(F)F [Example 94] | 59 | 1912 | 223 | 1580 (≈ 1010 µM) |  | 
COC(=O)N[C@H](C(=O)N[C@@H](Cc1ccc(C#Cc2cnc(N3CC4CCC(C3)N4C3COC3)nc2)cc1)[C@H](CN(Cc1c(F)cc(-c2ccn(C(F)F)n2)cc1F)NC(=O)[C@@H](NC(=O)OC)C(C)(C)C(F)(F)F)OC(=O)CC(C)(C)c1c(CC(=O)N(C)CC(=O)O)cc(C)cc1OP(=O)(O)O)C(C)(C)C(F)(F)F [Example 95] | 99.1 | 1927.5 | 253 | 4260 (≈ 2740 µM) |  | 
CC[C@H](C)[C@H](NC(=O)Cc1cc(C)cc(OP(=O)(O)O)c1C(C)(C)CC(=O)O[C@@H](CN(Cc1c(F)cc(-c2ccn(C(F)F)n2)cc1F)NC(=O)[C@@H](NC(=O)OC)C(C)(C)C(F)(F)F)[C@H](Cc1ccc(C#Cc2cnc(N3CC4CCC(C3)N4C3COC3)nc2)cc1)NC(=O)[C@@H](NC(=O)OC)C(C)(C)C(F)(F)F)C(=O)O [Example 96] | 559 | 2114.6 | 260 | 1840 (≈ 1150 µM) |  | 
COC(=O)N[C@H](C(=O)N[C@@H](Cc1ccc(C#Cc2cnc(N3CC4CCC(C3)N4C3COC3)nc2)cc1)[C@H](CN(Cc1c(F)cc(-c2ccn(C(F)F)n2)cc1F)NC(=O)[C@@H](NC(=O)OC)C(C)(C)C(F)(F)F)OC(=O)CC(C)(C)c1c(CC(=O)N(C)[C@@H](C)C(=O)O)cc(C)cc1OP(=O)(O)O)C(C)(C)C(F)(F)F [Example 97] | 204 | 1772.9 | 279 | 4660 (≈ 2970 µM) |  | 
COC(=O)N[C@H](C(=O)N[C@@H](Cc1ccc(C#Cc2cnc(N3CC4CCC(C3)N4C3COC3)nc2)cc1)[C@H](CN(Cc1c(F)cc(-c2ccn(C(F)F)n2)cc1F)NC(=O)[C@@H](NC(=O)OC)C(C)(C)C(F)(F)F)OC(=O)CC(C)(C)c1c(CC(=O)N[C@@H](C)C(=O)O)cc(C)cc1OP(=O)(O)O)C(C)(C)C(F)(F)F [Example 98] | 64.6 | 1320.1 | 388 | 4280 (≈ 2750 µM) |  | 
COC(=O)N[C@H](C(=O)N[C@@H](Cc1ccc(C#Cc2cnc(N3CC4CCC(C3)N4C3COC3)nc2)cc1)[C@H](CN(Cc1c(F)cc(-c2ccn(C(F)F)n2)cc1F)NC(=O)[C@@H](NC(=O)OC)C(C)(C)C(F)(F)F)OC(=O)CC(C)(C)c1c(CC(=O)N[C@@H](CC(C)C)C(=O)O)cc(C)cc1OP(=O)(O)O)C(C)(C)C(F)(F)F [Example 99] | 373 | 1928.8 | 447 | 1880 (≈ 1180 µM) |  | 
COC(=O)N[C@H](C(=O)N[C@@H](Cc1ccc(C#Cc2cnc(N3CC4CCC(C3)N4C3COC3)nc2)cc1)[C@H](CN(Cc1c(F)cc(-c2ccn(C(F)F)n2)cc1F)NC(=O)[C@@H](NC(=O)OC)C(C)(C)C(F)(F)F)OC(=O)CC(C)(C)c1c(CC(=O)NCCOP(=O)(O)O)cc(C)cc1OP(=O)(O)O)C(C)(C)C(F)(F)F [Example 100, (5S,10S,11S,14S)-8-(4-(1-(difluoromethyl)-1H-pyrazol-3-yl)-2,6-difluorobenzyl)-11-(4-((2-(8-(oxetan-3-yl)-3,8-diazabicyclo[3.2.1]octan-3-yl)pyrimidin-5-yl)ethynyl)benzyl)-3,6,13,16-tetraoxo-5,14-bis(1,1,1-trifluoro-2-methylpropan-2-yl)-2,17-dioxa-4,7,8,12,15-pentaazaoctadecan-10-yl 3-methyl-3-(4-methyl-2-(2-oxo-2-((2-(phosphonooxy)ethyl)amino)ethyl)-6-(phosphonooxy)phenyl)butanoate] | 42.4 | 1103.4 | 313 | 4450 (≈ 2770 µM) |  | 
